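The compound was tested at five concentrations on cells cultured in 96-well plates, with a 48-hour exposure period. The concentration for 50% growth inhibition is given as GI50. TGI marks complete inhibition of growth.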
Assays:
Assay in all cases: DTP human tumour cell line panel, 48 h
[1] = system: SK-MEL-2 melanoma
[2] = system: EKVX NSCLC
[3] = system: RXF 393 renal
[4] = system: U251 CNS
[5] = system: UO-31 renal
[6] = system: CCRF-CEM leukemia
[7] = system: SK-OV-3 ovarian
[8] = system: UACC-62 melanoma
[9] = system: SR leukemia
[10] = system: HCT-116 colon
[11] = system: OVCAR-5 ovarian
[12] = system: CAKI-1 renal
[13] = system: NCI-H23 lung
[14] = system: SNB-75 CNS
[15] = system: MDA-MB-231 breast
[16] = system: LOX IMVI melanoma
[17] = system: DU-145 prostate
[18] = system: MALME-3M melanoma
[19] = system: M14 melanoma
[20] = system: NCI-H522 lung
[21] = system: IGROV1 ovarian
[22] = system: SK-MEL-5 melanoma
[23] = system: K-562 leukemia
[24] = system: HOP-62 NSCLC
[25] = system: HCT-15 colon
[26] = system: SNB-19 CNS
[27] = system: SN12C renal
[28] = system: KM12 colon
[29] = system: ACHN renal
[30] = system: OVCAR-3 ovarian
[31] = system: NCI-H226 lung
[32] = system: SW-620 colon
[33] = system: A549 NSCLC
[34] = system: BT-549 breast
[35] = system: NCI-H460 lung
[36] = system: OVCAR-4 ovarian
[37] = system: MCF7 breast
[38] = system: OVCAR-8 ovarian
[39] = system: NCI/ADR-RES ovarian
[40] = system: A498 renal
[41] = system: SF-295 CNS
[42] = system: MDA-MB-435
[43] = system: MOLT-4 leukemia
[44] = system: COLO 205 colon
[45] = system: MDA-MB-468 breast
[46] = system: PC-3 prostate
[47] = system: HT29 colon
[48] = system: SF-268 CNS
[49] = system: HCC-2998 colon
[50] = system: SF-539 CNS
[51] = system: UACC-257 melanoma
[52] = system: HOP-92 NSCLC
[53] = system: TK-10 renal
[54] = system: HL-60(TB) leukemia
[55] = system: RPMI-8226 leukemia
[56] = system: T-47D breast
[57] = system: HS 578T breast
[58] = system: SK-MEL-28 melanoma
[59] = system: 786-0 renal

O=C(NO)c1ccc(CN2CCN(c3nc(-c4ccccc4)c4ccccc4n3)CC2)cc1
GI50 [1]: 7.78 µM
TGI [1]: > 23.7 µM
GI50 [2]: 4.94 µM
TGI [2]: 11.8 µM
GI50 [3]: 2.9 µM
TGI [3]: 8.53 µM
GI50 [4]: 6.19 µM
TGI [4]: > 23.7 µM
GI50 [5]: 3 µM
TGI [5]: 7.24 µM
GI50 [6]: 2.89 µM
TGI [6]: > 23.7 µM
GI50 [7]: 5.61 µM
TGI [7]: 13.5 µM
GI50 [8]: 3.74 µM
TGI [8]: 8.28 µM
GI50 [9]: > 23.7 µM
TGI [9]: > 23.7 µM
GI50 [10]: 2.95 µM
TGI [10]: 20.2 µM
GI50 [11]: 4.61 µM
TGI [11]: 12.4 µM
GI50 [12]: 5.15 µM
TGI [12]: 20.2 µM
GI50 [13]: 3.67 µM
TGI [13]: 7.89 µM
GI50 [14]: 3.76 µM
TGI [14]: > 23.7 µM
GI50 [15]: 3.4 µM
TGI [15]: 11 µM
GI50 [16]: 2.97 µM
TGI [16]: 6.12 µM
GI50 [17]: 5.63 µM
TGI [17]: 17 µM
GI50 [18]: 5.2 µM
TGI [18]: 18.3 µM
GI50 [19]: 6.26 µM
TGI [19]: > 23.7 µM
GI50 [20]: 4.57 µM
TGI [20]: 14.1 µM
GI50 [21]: 4.55 µM
TGI [21]: 11 µM
GI50 [22]: 3.67 µM
TGI [22]: 6.91 µM
GI50 [23]: 5.8 µM
TGI [23]: > 23.7 µM
GI50 [24]: 8.88 µM
TGI [24]: > 23.7 µM
GI50 [25]: 1.08 µM
TGI [25]: 7.77 µM
GI50 [26]: 6.27 µM
TGI [26]: > 23.7 µM
GI50 [27]: 5.65 µM
TGI [27]: 19.4 µM
GI50 [28]: 7.77 µM
TGI [28]: > 23.7 µM
GI50 [29]: 4.06 µM
TGI [29]: 10.2 µM
GI50 [30]: 4.32 µM
TGI [30]: 15.1 µM
GI50 [31]: 4.09 µM
TGI [31]: 13.3 µM
GI50 [32]: 4.8 µM
TGI [32]: 15.1 µM
GI50 [33]: 4.57 µM
TGI [33]: 11.5 µM
GI50 [34]: 8.64 µM
TGI [34]: > 23.7 µM
GI50 [35]: 3.66 µM
TGI [35]: 8.5 µM
GI50 [36]: 4.3 µM
TGI [36]: > 23.7 µM
GI50 [37]: 4.4 µM
TGI [37]: 23.4 µM
GI50 [38]: 4.78 µM
TGI [38]: 12.9 µM
GI50 [39]: 3.24 µM
TGI [39]: 7.86 µM
GI50 [40]: 8.03 µM
TGI [40]: > 23.7 µM
GI50 [41]: 4.5 µM
TGI [41]: 11 µM
GI50 [42]: 6.64 µM
TGI [42]: > 23.7 µM
GI50 [43]: 5.59 µM
TGI [43]: > 23.7 µM
GI50 [44]: 5.13 µM
TGI [44]: 12.3 µM
GI50 [45]: 2.74 µM
TGI [45]: 7.23 µM
GI50 [46]: 4.18 µM
TGI [46]: > 23.7 µM
GI50 [47]: 5.75 µM
TGI [47]: > 23.7 µM
GI50 [48]: 6.59 µM
TGI [48]: 20.7 µM
GI50 [49]: 4.03 µM
TGI [49]: 9.97 µM
GI50 [50]: 3.97 µM
TGI [50]: 7.92 µM
GI50 [51]: 6.94 µM
TGI [51]: > 23.7 µM
GI50 [52]: 5.02 µM
TGI [52]: 21.6 µM
GI50 [53]: 7.04 µM
TGI [53]: > 23.7 µM
GI50 [54]: 6.99 µM
TGI [54]: > 23.7 µM
GI50 [55]: 5.6 µM
TGI [55]: > 23.7 µM
GI50 [56]: 6.05 µM
TGI [56]: 23.2 µM
GI50 [57]: 7.85 µM
TGI [57]: > 23.7 µM
GI50 [58]: 6.83 µM
TGI [58]: > 23.7 µM
GI50 [59]: 5.81 µM
TGI [59]: 19.1 µM

O=C1Nc2cc(Cl)ccc2/C1=C/c1ccc(OCc2ccc(Br)cc2F)cc1
GI50 [1]: 7.22 µM
TGI [1]: 21.7 µM
GI50 [2]: 3.69 µM
TGI [2]: 17.1 µM
GI50 [3]: 2.73 µM
TGI [3]: 9.28 µM
GI50 [4]: 1.92 µM
TGI [4]: 3.62 µM
GI50 [5]: 1.55 µM
TGI [5]: 4.65 µM
GI50 [6]: 3.86 µM
TGI [6]: 14.6 µM
GI50 [7]: 3.81 µM
TGI [7]: 13.5 µM
GI50 [8]: 1.82 µM
TGI [8]: 3.8 µM
GI50 [9]: 2.07 µM
TGI [9]: 4.45 µM
GI50 [11]: 8.24 µM
TGI [11]: 34.3 µM
GI50 [12]: 1.7 µM
TGI [12]: 3.46 µM
GI50 [13]: 1.79 µM
TGI [13]: 4.08 µM
GI50 [14]: 2.19 µM
TGI [14]: 7 µM
GI50 [15]: 2.33 µM
TGI [15]: 5.92 µM
GI50 [16]: 1.73 µM
TGI [16]: 3.61 µM
GI50 [17]: 3.39 µM
TGI [17]: 10.1 µM
GI50 [18]: 1.82 µM
TGI [18]: 3.83 µM
GI50 [19]: 2.91 µM
TGI [19]: 9.02 µM
GI50 [20]: 1.99 µM
TGI [20]: 4.89 µM
GI50 [21]: 2.43 µM
TGI [21]: 6.3 µM
GI50 [22]: 3.47 µM
TGI [22]: 12.3 µM
GI50 [23]: 4.03 µM
TGI [23]: 17 µM
GI50 [24]: 1.9 µM
TGI [24]: 4.21 µM
GI50 [25]: 3.4 µM
TGI [25]: 13 µM
GI50 [26]: 2.3 µM
TGI [26]: 5.72 µM
GI50 [27]: 5.31 µM
TGI [27]: 19.6 µM
GI50 [28]: 3.54 µM
TGI [28]: 11.5 µM
GI50 [29]: 1.92 µM
TGI [29]: 3.83 µM
GI50 [30]: 2.49 µM
TGI [30]: 5.08 µM
GI50 [31]: 2.07 µM
TGI [31]: 5.53 µM
GI50 [32]: 2.02 µM
TGI [32]: 4.18 µM
GI50 [33]: 2.08 µM
TGI [33]: 4.35 µM
GI50 [34]: 1.92 µM
TGI [34]: 4.26 µM
GI50 [35]: 2.02 µM
TGI [35]: 3.74 µM
GI50 [36]: 1.9 µM
TGI [36]: 3.98 µM
GI50 [37]: 2.11 µM
TGI [37]: 14.2 µM
GI50 [38]: 3.31 µM
TGI [38]: 10.4 µM
GI50 [40]: 2.23 µM
TGI [40]: 4.59 µM
GI50 [41]: 2.07 µM
TGI [41]: 4.36 µM
GI50 [42]: 2.87 µM
TGI [42]: 8.54 µM
GI50 [43]: 3.98 µM
TGI [43]: 14.4 µM
GI50 [44]: 4.03 µM
TGI [44]: 17 µM
GI50 [45]: 2.24 µM
TGI [45]: 4.65 µM
GI50 [46]: 1.91 µM
TGI [46]: 4.46 µM
GI50 [47]: 4.69 µM
TGI [47]: 19.5 µM
GI50 [48]: 2.67 µM
TGI [48]: 6.35 µM
GI50 [49]: 15.4 µM
TGI [49]: 37.7 µM
GI50 [50]: 1.92 µM
TGI [50]: 3.59 µM
GI50 [51]: 9.42 µM
TGI [51]: 26.3 µM
GI50 [52]: 2.28 µM
TGI [52]: 6.17 µM
GI50 [53]: 2.73 µM
TGI [53]: 7.15 µM
GI50 [54]: 17.7 µM
TGI [54]: 53.6 µM
GI50 [55]: 4.41 µM
TGI [55]: 18.1 µM
GI50 [56]: 4.19 µM
TGI [56]: 18.3 µM
GI50 [57]: 2.05 µM
TGI [57]: 6.6 µM
GI50 [58]: 2.18 µM
TGI [58]: 4.92 µM
GI50 [59]: 1.9 µM
TGI [59]: 3.5 µM
